Source: US9266880B2, “Substituted azaindazole compounds” (Bristol-Myers Squibb Company, priority 2010, dated 2016)

Target: Human CYP17 (Homo sapiens (Human), UniProt P05093)
Assay: CYP17 Total SPA Assay
Type: biochemical
Conditions: microsomes from HEK2 cells stably transfected with CYP17; 3H-Pregnenolone 1 uM, NADPH 2 mM; 45 minutes at room temperature
Method: The assays were performed in U-bottom 384-well optiplates. The final assay volume was 15 μl prepared from 7.5 μl additions of microsomes (prepared as a high-speed pellet from homogenized HEK2 cells stably transfected with CYP17), substrates (3H— Pregnenolone and NADPH) and test compounds in assay buffer (50 mM Potassium phosphate pH 7.2, 10% glycerol). The reaction was initiated by the combination of the microsomes and substrates in wells containing compound. The reaction was incubated at room temperature for 45 minutes and terminated by adding 7.5 μl of 0.2N HCl to each well. Following an incubation period of 10 minutes, anti-DHEA-coated SPA beads were added to the terminated reaction. The plate was sealed and incubated overnight with shaking at 4° C. The beads were allowed to settle in the plate for 1 hour and the plate read on a TOPCOUNT® (Perkin-Elmer) plate reader.
Inhibition data were calculated by comparison to no enzyme control reactions for 100% inhibition and vehicle-only reactions for 0% inhibition. The final concentration of reagents in the assays are NADPH, 2 mM; 3H-Pregnenolone, 1 uM; microsomes, 1.25 ug/ml; Anti-DHEA-SPA beads (0.125 mg/well) in 0.5% Triton X-100 and DMSO, 0.05%. Dose response curves were generated to determine the concentration required inhibiting 50% of enzyme activity (IC50). Compounds were dissolved at 10 mM in dimethylsulfoxide (DMSO) and evaluated at eleven concentrations, each in duplicate. IC50 values were derived by non-linear regression analysis.

Chain of Human CYP17 (P05093 whole entry): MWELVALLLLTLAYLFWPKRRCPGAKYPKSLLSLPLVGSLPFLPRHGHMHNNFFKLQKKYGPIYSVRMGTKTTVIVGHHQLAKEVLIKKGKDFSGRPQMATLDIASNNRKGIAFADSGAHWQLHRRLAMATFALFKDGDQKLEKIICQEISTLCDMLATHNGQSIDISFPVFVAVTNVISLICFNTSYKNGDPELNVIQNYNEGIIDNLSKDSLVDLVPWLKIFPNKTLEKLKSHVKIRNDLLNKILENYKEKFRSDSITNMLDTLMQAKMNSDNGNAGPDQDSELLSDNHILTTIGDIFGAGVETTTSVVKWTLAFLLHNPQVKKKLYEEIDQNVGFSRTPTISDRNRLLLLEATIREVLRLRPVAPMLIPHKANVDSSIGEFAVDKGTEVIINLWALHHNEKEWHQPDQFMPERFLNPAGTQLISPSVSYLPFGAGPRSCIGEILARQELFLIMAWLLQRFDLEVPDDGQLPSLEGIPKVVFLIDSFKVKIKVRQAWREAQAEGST

Compound	IC50 [nM]
Cn1cncc1-c1ccnc2c1cnn2-c1ccc(F)cc1 [Example 4, 1-(4-Fluorophenyl)-4-(1-methyl-1H-imidazol-5-yl)-1H-pyrazolo[3,4-b]pyridine]	50
Fc1ccc(-n2ncc3c(-c4cncc5ccccc45)ccnc32)cc1 [Example 1, 4-(1-(4-Fluorophenyl)-1H-pyrazolo[3,4-b]pyridin-4-yl)isoquinoline]	128
Cn1cncc1-c1ccnc2c1cnn2-c1cccc(S(N)(=O)=O)c1 [Example 6, 3-(4-(1-Methyl-1H-imidazol-5-yl)-1H-pyrazolo[3,4-b]pyridin-1-yl)benzenesulfonamide]	271
NS(=O)(=O)c1cccc(-n2ncc3c(-c4cncc5ccccc45)ccnc32)c1 [Example 7, 3-(4-(Isoquinolin-4-yl)-1H-pyrazolo[3,4-b]pyridin-1-yl)benzenesulfonamide]	23
NS(=O)(=O)c1cccc(-n2ncc3c(-c4cncc5ncccc45)ccnc32)c1 [Example 5, 3-(4-(1,7-Naphthyridin-5-yl)-1H-pyrazolo[3,4-b]pyridin-1-yl)benzenesulfonamide]	206
Fc1ccc(-n2ncc3c(-c4cncc5ncccc45)ccnc32)cc1 [Example 3, 5-(1-(4-Fluorophenyl)-1H-pyrazolo[3,4-b]pyridin-4-yl)-1,7-naphthyridine]	41
Fc1ccc(-n2ncc3c(-n4ccnc4)ccnc32)cc1 [Example 2, 1-(4-Fluorophenyl)-4-(1H-imidazol-1-yl)-1H-pyrazolo[3,4-b]pyridine]	640
Fc1ccc(-n2ncc3c(-c4cncn5cccc45)ccnc32)c(F)c1 [Example 8, 1-(2,4-Difluorophenyl)-4-(pyrrolo[1,2-c]pyrimidin-4-yl)-1H-pyrazolo[3,4-b]pyridine]	76
